Measurements from patent US20260226071A1, “2, 4-DIANILINOPYRIMIDINE-BASED AURORA-A KINASE SELECTIVE DEGRADATION INDUCING COMPOUNDS” (UPPTHERA, INC., priority 2023, published 2026).

What was measured:
Aurora kinase A (AURKA) = target: T1, Aurora kinase A (AURKA) (Homo sapiens, UniProt O14965); assay: Luciferase assay for AURKA in HeLa LgBit (AURKA-HiBit KI) cell line; format: cell-based; settings: HeLa LgBit (AURKA-HiBit KI) cells, measured after 12 hours
T1 construct: endogenous in cells; host or cells: HeLa LgBit (AURKA-HiBit KI), CRISPR/Cas9 knock-in at the endogenous AURKA locus
T1 sequence (O14965 1-403): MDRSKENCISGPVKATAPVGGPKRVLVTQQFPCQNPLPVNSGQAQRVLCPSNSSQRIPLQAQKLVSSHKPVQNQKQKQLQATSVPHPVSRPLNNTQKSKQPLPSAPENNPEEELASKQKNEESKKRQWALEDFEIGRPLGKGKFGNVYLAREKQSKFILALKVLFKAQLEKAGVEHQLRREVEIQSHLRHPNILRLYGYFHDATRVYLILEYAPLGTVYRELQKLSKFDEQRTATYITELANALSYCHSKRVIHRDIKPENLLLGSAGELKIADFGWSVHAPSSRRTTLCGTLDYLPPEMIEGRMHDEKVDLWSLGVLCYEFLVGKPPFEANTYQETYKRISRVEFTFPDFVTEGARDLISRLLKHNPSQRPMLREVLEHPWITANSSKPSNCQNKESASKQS
Method in brief: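 Test compounds (10 nM or 100 nM) added to AURKA-HiBit knock-in HeLa LgBit cells that had been pre-loaded with Endurazine for 2 h following an 18 h culture at 3×10^4 cells. Endogenous AURKA-HiBit level followed by luminescence (470-480 nm), measured after 12 h.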

NCI-H446 cell line = assay: Cell viability assay for NCI-H446 cell line; format: cell-based; settings: Homo sapiens, NCI-H446, 120 h; H446 cells, 5 days culture, EZ-Cytox; read-out: IC50 value (Level)
Text: The NCI-H446 (hereafter H446) cell lines were provided from American Type Culture Collection (ATCC). For cell culture, RPMI medium 1640 (Gibco, Cat. No. 22400-089; Lot. No. 2522717), FBS (Gibco, Cat. No. 16000-044; Lot. No. 2716756P), Penicillin/Streptomycin (PS) (Gibco, Cat. No. 15140-122; Lot. No. 2585636), 75T cell culture flask (SPL, Cat. No. 70075), 96 well cell culture plate (SPL, Cat. No. 30096), PBS pH 7.4 (Gibco, Cat. No. 10010-023; Lot. No. 2561466), TrypLE™ Express (Gibco, Cat. No. 12605-010; Lot. No. 2492811), counting chamber (hematocytometer) (Hirschmann, Cat. No. 8100204) and 0.4% Trypan Blue solution (DYNEBIO, Cat. No. CBT3710; Lot. No. 20231017) were used. Cells were cultured in RPMI 1640 medium supplemented with 10% FBS and 1% PS and incubated at 37° C., 5% CO2 condition in CO2 incubator (ThermoScientific, Cat. No. 4111).
For experiment, the present compounds were fully dissolved in DMSO (Sigma-Aldrich Cat. No. D2438, Lot. No. RNBL7287.
In each well of 96-well cell culture plate, […] cells of H446 cell lines were seeded in 150 μl of total medium volume. After 24 hours of cell seeding, the present compounds were treated.
The present compounds were each diluted 3-folds from the highest concentration of 1000 nM to the lowest concentration of 0.15 nM. The compound was added to each well to make the total volume of […] and the cells were cultured for 5 days in CO2 incubator (Thermo Fisher Science, Cat. No. 4111).
Thereafter, 20 μl of EZ-Cytox (DOGEN, Cat. NO. EZ-3000, Lot. No. DLS2308) was added to each well and the cells were cultured for 4 hours at the same condition in CO2 incubator. After culture, the absorbance of the sample was measured by setting the wavelength of a plate reader (BMG Labtech, CLARIOstar Plus) to […]. The samples were shaked for 2 minutes in the plate reader before measurement.

Structure (SMILES): O=C1CCC(c2ccc(N3CCN(CCN4CCC(NC(=O)c5ccc(Nc6ncc(F)c(Nc7ccc(C(=O)Nc8ccccc8Cl)cc7)n6)cc5)CC4)CC3)cc2)C(=O)N1 (stereo not drawn) [Compound 18, N-(2-chlorophenyl)-4-((2-((4-((1-(2-(4-(4-(2,6-dioxopiperidin-3-yl)phenyl)piperazin-1-yl)ethyl)piperidin-4-yl)carbamoyl)phenyl)amino)-5-fluoropyrimidin-4-yl)amino) benzamide]
- luminescence value (Level) (Aurora kinase A (AURKA); 10 nM compound): A (A is <0.3)
- luminescence value (Level) (Aurora kinase A (AURKA); 100 nM compound): A (A is <0.2)
- IC50 (NCI-H446 cell line): < 50 nM

Structure (SMILES): O=C1CCC(c2ccc(N3CCC(N4CCC5(CC4)CC(NC(=O)c4ccc(Nc6ncc(F)c(Nc7ccc(C(=O)Nc8ccccc8Cl)cc7)n6)cc4)C5)CC3)c(F)c2)C(=O)N1 (stereo not drawn) [Compound 21, N-(2-chlorophenyl)-4-((2-((4-((7-(1-(4-(2,6-dioxopiperidin-3-yl)-2-fluorophenyl)piperidin-4-yl)-7-azaspiro[3.5]nonan-2-yl)carbamoyl)phenyl)amino)-5-fluoropyrimidin-4-yl)amino)benzamide]
- luminescence value (Level) (Aurora kinase A (AURKA); 10 nM compound): B (B is 0.3 to 0.5)
- luminescence value (Level) (Aurora kinase A (AURKA); 100 nM compound): A (A is <0.2)
- IC50 (NCI-H446 cell line): < 50 nM

Structure (SMILES): O=C1CCC(c2ccc(N3CCC(N4CCC5(CC4)CC(NC(=O)Cc4ccc(Nc6ncc(F)c(Nc7ccc(C(=O)Nc8ccccc8Cl)cc7)n6)cc4)C5)CC3)c(F)c2)C(=O)N1 (stereo not drawn) [Compound 22, N-(2-chlorophenyl)-4-((2-((4-(2-((7-(1-(4-(2,6-dioxopiperidin-3-yl)-2-fluorophenyl)piperidin-4-yl)-7-azaspiro[3.5]nonan-2-yl)amino)-2-oxoethyl)phenyl)amino)-5-fluoropyrimidin-4-yl)amino)benzamide]
- luminescence value (Level) (Aurora kinase A (AURKA); 10 nM compound): A (A is <0.3)
- luminescence value (Level) (Aurora kinase A (AURKA); 100 nM compound): A (A is <0.2)
- IC50 (NCI-H446 cell line): 100 to 150 nM

Structure (SMILES): O=C1CCC(c2ccc(N3CCC(CN4CCC5(CC4)CC(NC(=O)c4ccc(Nc6ncc(F)c(Nc7ccc(C(=O)Nc8ccccc8Cl)cc7)n6)cc4)C5)CC3)c(F)c2)C(=O)N1 (stereo not drawn) [Compound 23, N-(2-chlorophenyl)-4-((2-((4-((7-((1-(4-(2,6-dioxopiperidin-3-yl)-2-fluorophenyl)piperidin-4-yl)methyl)-7-azaspiro[3.5]nonan-2-yl)carbamoyl)phenyl)amino)-5-fluoropyrimidin-4-yl)amino)benzamide]
- luminescence value (Level) (Aurora kinase A (AURKA); 10 nM compound): B (B is 0.3 to 0.5)
- luminescence value (Level) (Aurora kinase A (AURKA); 100 nM compound): A (A is <0.2)
- IC50 (NCI-H446 cell line): < 50 nM

Structure (SMILES): O=C1CCC(Nc2ccc(N3CCC(CN4CCN(C(=O)Cc5ccc(Nc6ncc(F)c(Nc7ccc(C(=O)Nc8ccccc8Cl)cc7)n6)cc5)CC4)CC3)cc2)C(=O)N1 (stereo not drawn) [Compound 24, N-(2-chlorophenyl)-4-((2-((4-(2-(4-((1-(4-((2,6-dioxopiperidin-3-yl)amino)phenyl)piperidin-4-yl)methyl)piperazin-1-yl)-2-oxoethyl)phenyl)amino)-5-fluoropyrimidin-4-yl)amino)benzamide]
- luminescence value (Level) (Aurora kinase A (AURKA); 10 nM compound): B (B is 0.3 to 0.5)
- luminescence value (Level) (Aurora kinase A (AURKA); 100 nM compound): A (A is <0.2)
- IC50 (NCI-H446 cell line): < 50 nM

Structure (SMILES): O=C1CCC(Nc2ccc(N3CCN(C[C@H]4CC[C@H](NC(=O)c5ccc(Nc6ncc(F)c(Nc7ccc(C(=O)Nc8ccccc8Cl)cc7)n6)cc5)CC4)CC3)cc2)C(=O)N1 (stereo partly drawn) [Compound 26, N-(2-chlorophenyl)-4-((2-((4-(((1r,4r)-4-((4-(4-((2,6-dioxopiperidin-3-yl)amino)phenyl)piperazin-1-yl)methyl)cyclohexyl)carbamoyl)phenyl)amino)-5-fluoropyrimidin-4-yl)amino)benzamide]
- luminescence value (Level) (Aurora kinase A (AURKA); 10 nM compound): B (B is 0.3 to 0.5)
- luminescence value (Level) (Aurora kinase A (AURKA); 100 nM compound): B (B is 0.2 to 0.4)
- IC50 (NCI-H446 cell line): < 50 nM

Structure (SMILES): O=C1CCC(Nc2ccc(N3CCN(CC4CC45CCN(C(=O)c4ccc(Nc6ncc(F)c(Nc7ccc(C(=O)Nc8ccccc8Cl)cc7)n6)cc4)CC5)CC3)cc2)C(=O)N1 (stereo not drawn) [Compound 30, N-(2-chlorophenyl)-4-((2-((4-(1-((4-(4-((2,6-dioxopiperidin-3-yl)amino)phenyl)piperazin-1-yl)methyl)-6-azaspiro[2.5]octane-6-carbonyl)phenyl)amino)-5-fluoropyrimidin-4-yl)amino)benzamide]
- luminescence value (Level) (Aurora kinase A (AURKA); 10 nM compound): B (B is 0.3 to 0.5)
- luminescence value (Level) (Aurora kinase A (AURKA); 100 nM compound): A (A is <0.2)
- IC50 (NCI-H446 cell line): < 50 nM

Structure (SMILES): O=C1CCC(Nc2ccc(N3CCC(CN4CCC5(CC4)CCN(C(=O)c4ccc(Nc6ncc(F)c(Nc7ccc(C(=O)Nc8ccccc8Cl)cc7)n6)cc4)C5)CC3)cc2)C(=O)N1 (stereo not drawn) [Compound 33, N-(2-chlorophenyl)-4-[[2-[4-[8-[[1-[4-[(2,6-dioxo-3-piperidyl)amino]phenyl]-4-piperidyl]methyl]-2,8-diazaspiro[4.5]decane-2-carbonyl]anilino]-5-fluoro-pyrimidin-4-yl]amino]benzamide]
- luminescence value (Level) (Aurora kinase A (AURKA); 10 nM compound): B (B is 0.3 to 0.5)
- luminescence value (Level) (Aurora kinase A (AURKA); 100 nM compound): A (A is <0.2)
- IC50 (NCI-H446 cell line): 100 to 150 nM

Structure (SMILES): O=C1CCC(Nc2ccc(N3CC(CN4CC5CN(C(=O)c6ccc(Nc7ncc(F)c(Nc8ccc(C(=O)Nc9ccccc9Cl)cc8)n7)cc6)CC5C4)C3)cc2)C(=O)N1 (stereo not drawn) [Compound 35, N-(2-chlorophenyl)-4-((2-((4-(5-((1-(4-((2,6-dioxopiperidin-3-yl)amino)phenyl)azetidin-3-yl)methyl)octahydropyrrolo[3,4-c]pyrrole-2-carbonyl)phenyl)amino)-5-fluoropyrimidin-4-yl)amino)benzamide]
- luminescence value (Level) (Aurora kinase A (AURKA); 10 nM compound): B (B is 0.3 to 0.5)
- luminescence value (Level) (Aurora kinase A (AURKA); 100 nM compound): B (B is 0.2 to 0.4)
- IC50 (NCI-H446 cell line): 150 to 200 nM

Structure (SMILES): O=C1CCC(Nc2ccc(N3CC(N4CCc5cc(NC(=O)c6ccc(Nc7ncc(F)c(Nc8ccc(C(=O)Nc9ccccc9Cl)cc8)n7)cc6)ccc5C4)C3)cc2)C(=O)N1 (stereo not drawn) [Compound 36, N-(2-chlorophenyl)-4-((2-((4-((2-(1-(4-((2,6-dioxopiperidin-3-yl)amino)phenyl)azetidin-3-yl)-1,2,3,4-tetrahydroisoquinolin-6-yl)carbamoyl)phenyl)amino)-5-fluoropyrimidin-4-yl)amino)benzamide]
- luminescence value (Level) (Aurora kinase A (AURKA); 10 nM compound): B (B is 0.3 to 0.5)
- luminescence value (Level) (Aurora kinase A (AURKA); 100 nM compound): A (A is <0.2)
- IC50 (NCI-H446 cell line): 100 to 150 nM

Structure (SMILES): CN(CC1CCN(c2ccc(NC3CCC(=O)NC3=O)cc2)CC1)C[C@H]1CC[C@H](NC(=O)c2ccc(Nc3ncc(F)c(Nc4ccc(C(=O)Nc5ccccc5Cl)cc4)n3)cc2)CC1 (stereo partly drawn) [Compound 38, N-(2-chlorophenyl)-4-[[2-[4-[[4-[[[1-[4-[(2,6-dioxo-3-piperidyl)amino]phenyl]-4-piperidyl]methyl-methyl-amino]methyl]cyclohexyl]carbamoyl]anilino]-5-fluoro-pyrimidin-4-yl]amino]benzamide]
- luminescence value (Level) (Aurora kinase A (AURKA); 10 nM compound): B (B is 0.3 to 0.5)
- luminescence value (Level) (Aurora kinase A (AURKA); 100 nM compound): B (B is 0.2 to 0.4)
- IC50 (NCI-H446 cell line): > 200 nM
